In brackets after ≈: the same amount, converted by molar mass. Activity calls are given as the source filed them.
What was measured:
[1] = system: Staphylococcus aureus; assay: Antimicrobial activity against Staphylococcus aureus ATCC 29213 assessed as microbial growth inhibition at pH 9 by susceptibility testing method; type: functional
[2] = system: Staphylococcus aureus; assay: Antimicrobial activity against Staphylococcus aureus ATCC 29213 assessed as microbial growth inhibition in presence of K+ by susceptibility testing method; type: functional
[3] = system: Staphylococcus aureus; assay: Antimicrobial activity against Staphylococcus aureus ATCC 29213 assessed as microbial growth inhibition in presence of (H2PO4)-/(HPO4)2- by susceptibility testing method; type: functional
[4] = system: Staphylococcus aureus; assay: Antimicrobial activity against Staphylococcus aureus ATCC 29213 assessed as microbial growth inhibition at pH 8 by susceptibility testing method; type: functional
[5] = system: Lipid bilayer; assay: Induction of pore formation in zwitter-ionic DOPC lipid bilayer membrane model at 1 to 100 ug/ml; conditions: dose 1-100 µg/ml
[6] = system: Lipid bilayer; assay: Induction of pore formation in anionic DOPC/DOPG lipid bilayer membrane model at 1 to 100 ug/ml in presence of CaCl2; conditions: dose 1-100 µg/ml
[7] = system: Lipid bilayer; assay: Induction of pore formation in anionic TMoCL lipid bilayer membrane model at 1 to 100 ug/ml; conditions: dose 1-100 µg/ml
[8] = system: Micrococcus luteus; assay: Antimicrobial activity against Micrococcus luteus assessed as microbial growth inhibition in presence of Ca2+ by susceptibility testing method; type: functional, organism-based
[9] = system: Staphylococcus aureus; assay: Antimicrobial activity against Staphylococcus aureus ATCC 29213 assessed as microbial growth inhibition in presence of (B4O7)2- by susceptibility testing method; type: functional
[10] = system: Staphylococcus aureus; assay: Antimicrobial activity against Staphylococcus aureus ATCC 29213 assessed as microbial growth inhibition in presence of Mg2+ by susceptibility testing method; type: functional
[11] = system: Staphylococcus aureus; assay: Antimicrobial activity against Staphylococcus aureus ATCC 29213 assessed as microbial growth inhibition measured after 18 hrs by CLSI based broth microdilution method; type: functional
[12] = system: Bacillus cereus; assay: Antimicrobial activity against Bacillus cereus X1 assessed as microbial growth inhibition in presence of Ca2+ by susceptibility testing method; type: functional, organism-based
[13] = system: Staphylococcus aureus; assay: Antimicrobial activity against Staphylococcus aureus ATCC 29213 assessed as microbial growth inhibition in presence of <=200 mM of (H2PO4)-/(HPO4)2- by susceptibility testing method; type: functional, organism-based
[14] = system: Staphylococcus aureus; assay: Antimicrobial activity against Staphylococcus aureus ATCC 29213 assessed as microbial growth inhibition at pH 6 by susceptibility testing method; type: functional
[15] = system: Staphylococcus aureus; assay: Antimicrobial activity against Staphylococcus aureus ATCC 29213 assessed as microbial growth inhibition in presence of Fe3+ by susceptibility testing method; type: functional
[16] = system: Lipid bilayer; assay: Induction of pore formation in anionic DPhPG lipid bilayer membrane model at 1 to 100 ug/ml in presence of CaCl2; conditions: dose 1-100 µg/ml
[17] = system: Staphylococcus aureus; assay: Antimicrobial activity against Staphylococcus aureus ATCC 29213 assessed as microbial growth inhibition at pH 7 by susceptibility testing method; type: functional
[18] = system: Staphylococcus aureus; assay: Antimicrobial activity against Staphylococcus aureus ATCC 29213 assessed as microbial growth inhibition in presence of (CH3CO2)- by susceptibility testing method; type: functional
[19] = system: Lipid bilayer; assay: Induction of pore formation in cationic DOPC/DOTAP lipid bilayer membrane model at 1 to 100 ug/ml; conditions: dose 1-100 µg/ml
[20] = system: Pseudomonas aeruginosa; assay: Antimicrobial activity against Pseudomonas aeruginosa assessed as microbial growth inhibition in presence of Ca2+ by susceptibility testing method; type: functional, organism-based
[21] = system: Staphylococcus aureus; assay: Antimicrobial activity against Staphylococcus aureus ATCC 29213 assessed as microbial growth inhibition in presence of (HCO3)- by susceptibility testing method; type: functional
[22] = system: Staphylococcus aureus; assay: Antimicrobial activity against Staphylococcus aureus ATCC 29213 assessed as microbial growth inhibition by susceptibility testing method; type: functional
[23] = system: Staphylococcus aureus; assay: Antimicrobial activity against Staphylococcus aureus ATCC 29213 assessed as microbial growth inhibition in presence of Zn2+ by susceptibility testing method; type: functional
[24] = system: Staphylococcus aureus; assay: Antimicrobial activity against Staphylococcus aureus ATCC 29213 assessed as microbial growth inhibition in presence of Ca2+ by susceptibility testing method; type: functional
[25] = system: Staphylococcus aureus; assay: Antimicrobial activity against Staphylococcus aureus ATCC 29213 assessed as microbial growth inhibition at pH 10 by susceptibility testing method; type: functional
[26] = system: Lipid bilayer; assay: Induction of pore formation in anionic DOPC/DOPG lipid bilayer membrane model at 1 to 100 ug/ml; conditions: dose 1-100 µg/ml
[27] = system: Macrococcus caseolyticus; assay: Antimicrobial activity against Macrococcus caseolyticus assessed as microbial growth inhibition in presence of Ca2+ by susceptibility testing method; type: functional, organism-based; conditions: Macrococcoides caseolyticum
[28] = system: Lipid bilayer; assay: Induction of pore formation in anionic DPhPG lipid bilayer membrane model at 1 to 100 ug/ml; conditions: dose 1-100 µg/ml
[29] = system: Staphylococcus aureus; assay: Antimicrobial activity against Staphylococcus aureus ATCC 29213 assessed as microbial growth inhibition at pH 5 by susceptibility testing method; type: functional
[30] = system: Staphylococcus aureus; assay: Antimicrobial activity against Staphylococcus aureus ATCC 29213 assessed as microbial growth inhibition at pH 7.4 by susceptibility testing method; type: functional
[31] = system: Lipid bilayer; assay: Induction of pore formation in cationic DOPC/DOTAP lipid bilayer membrane model at 1 to 100 ug/ml in presence of CaCl2; conditions: dose 1-100 µg/ml
[32] = system: Escherichia coli; assay: Antimicrobial activity against Escherichia coli expressing delta-tolC/KanR assessed as microbial growth inhibition in presence of Ca2+ by susceptibility testing method; type: functional, organism-based
[33] = system: Lipid bilayer; assay: Induction of pore formation in anionic TMoCL lipid bilayer membrane model assessed as pore-forming threshold concentration in presence of CaCl2
[34] = system: Lipid bilayer; assay: Induction of pore formation in anionic TOCL lipid bilayer membrane model at 1 to 100 ug/ml in presence of CaCl2; conditions: dose 1-100 µg/ml
[35] = system: Lipid bilayer; assay: Induction of pore formation in anionic TOCL lipid bilayer membrane model at 1 to 100 ug/ml; conditions: dose 1-100 µg/ml
[36] = system: Staphylococcus aureus; assay: Antimicrobial activity against Staphylococcus aureus ATCC 29213 assessed as microbial growth inhibition in presence of Cu2+ by susceptibility testing method; type: functional
[37] = system: Staphylococcus aureus; assay: Antimicrobial activity against Staphylococcus aureus ATCC 29213 assessed as microbial growth inhibition in presence of Mn2+ by susceptibility testing method; type: functional
[38] = system: Escherichia coli; assay: Antimicrobial activity against Escherichia coli BL21 (DE3) assessed as microbial growth inhibition in presence of Ca2+ by susceptibility testing method; type: functional, organism-based
[39] = system: Staphylococcus aureus; assay: Antimicrobial activity against Staphylococcus aureus ATCC 29213 assessed as microbial growth inhibition in presence of Na+ by susceptibility testing method; type: functional
[40] = system: Lipid bilayer; assay: Induction of pore formation in anionic TMoCL lipid bilayer membrane model assessed as pore-forming threshold concentration

Compound: CC(C)/C=C/C=C\C(=O)NCCC(=O)N[C@@H](CCCN)C(=O)NC(CC(O)c1ccccc1)C(=O)NC(C(=O)N[C@@H](Cc1ccc(OC2OC[C@H](O)[C@H](O)[C@H]2O)cc1)C(=O)NC1C(=O)N[C@H](CC(C)C)C(=O)N[C@@H](CC(=O)O)C(=O)NCC(=O)N[C@@H](CO)C(=O)NCC(=O)N[C@@H](CC(=O)c2ccc(Cl)cc2N)C(=O)N[C@@H](C)C(=O)N2CCC[C@H]2C(=O)NC1C)C(O)CC(=O)O (stereo not given in full)
- MIC [1]: 0.5 µg/mL (≈ 0.271 µM)
- MIC [2]: 1 µg/mL
- MIC [3]: 4 µg/mL
- MIC [4]: 1 µg/mL (≈ 0.541 µM)
- Activity [5]: inactive
- Activity [6]: Active
- Activity [7]: Active
- inhibition [8]: Active
- MIC [9]: 1 µg/mL
- MIC [10]: 1 µg/mL
- MIC [11]: 1 µg/mL (≈ 0.541 µM)
- inhibition [12]: Active
- Activity [13]: inactive
- MIC [14]: 4 µg/mL (≈ 2.17 µM)
- MIC [15]: 1 µg/mL
- Activity [16]: Active
- MIC [17]: 2 µg/mL (≈ 1.08 µM)
- MIC [18]: 2 µg/mL
- Activity [19]: Active
- inhibition [20]: inactive
- MIC [21]: 0.5 µg/mL
- MIC [22]: 1 µg/mL (≈ 0.541 µM)
- MIC [23]: 1 µg/mL
- MIC [24]: 0.125 µg/mL
- MIC [25]: 0.25 µg/mL (≈ 0.135 µM)
- Activity [26]: Active
- inhibition [27]: Active
- Activity [28]: Active
- MIC [29]: 4 µg/mL (≈ 2.17 µM)
- MIC [30]: 1 µg/mL (≈ 0.541 µM)
- Activity [31]: Active
- inhibition [32]: inactive
- Activity [33]: 7 µg/mL
- Activity [34]: Active
- Activity [35]: Active
- MIC [36]: 1 µg/mL
- MIC [37]: 1 µg/mL
- inhibition [38]: inactive
- MIC [39]: 1 µg/mL
- Activity [40]: 10 µg/mL
